Data set [1] has as its system HCMV. The data set can be described thus: 4-PBA reversibility: HCMV yield 8 days after drug removal, TCID50. The conditions noted are these: all doses tested; 8-day treatment; 16 days post infection. Format: cell-based, human cytomegalovirus. On the procedure: (§1) FIG. 11. 4-PBA is not toxic to uninfected or infected confluent human fibroblasts. (A) Fibroblasts were maintained in medium containing the indicated concentrations of 4-PBA for 8 days. The medium was replaced every other day throughout the time course. At the end of the treatment period, cell viability was measured by the trypan blue exclusion assay. Date points represent the mean of duplicate wells. (B) Fibroblasts were infected with HCMV at a multiplicity of 0.1 pfu/cell. Cells were fed every other day with fresh medium containing the indicated concentration of 4-PBA. At eight days post infection, cells were washed once with media, and then media lacking drug was added. Eight days later (16 days post infection) cell free virus in the supernatant was quantitated by the TCID50 method. Date points represent the mean of duplicate wells.
(§2) Two experiments were performed to rule out the possibility that 4-PBA is simply toxic to the cells and inhibits HCMV indirectly by reducing cell viability (FIG. 11). In the first experiment (FIG. 11A) an assay for cell viability was performed on confluent human fibroblasts treated for eight days with different concentrations of the drug. […] Then the drug was removed and the yield of virus was determined 8 days later.

In the next data set the test system is HCMV strain AD169. As to the kind of experiment: HCMV AD169 replication in human fibroblasts treated with 4-PBA, TCID50. Format: cell-based, human cytomegalovirus. To be noted: 0.1 pfu/cell; day 8 post infection; range of 4-PBA doses. The source says:
FIG. 10. 4-PBA inhibits HCMV replication in a dose-dependent manner. […] The medium with drug was replaced every other day. Cell-free and cell-associated virus was collected on day 8 post infection and titered by the TCID50 method. Data represent the log mean titer of duplicate samples.
To explore the hypothesis that HCMV might actually require the UPR to occur in order to maintain cellular homeostasis despite high levels of expression of viral glycoproteins, HCMV-infected human fibroblasts (HFFs) were treated with an inhibitor of the UPR, the chemical chaperone sodium 4-phenylbutyrate (4-PBA).

In the next data set the test system is human fibroblasts. As to the kind of experiment: trypan blue exclusion viability of confluent human fibroblasts treated with 4-PBA. It is filed as cell-based. To be noted: 8 days; up to highest dose tested. On the procedure: as §1, §2
Another data set has as its target mTOR (Homo sapiens, UniProt P42345). To be noted: read-out: IC50 of selective mTOR inhibitor; cited from earlier work.
For the next data set, the system named is PI3Ks. To be noted: cited from earlier work.
Data set [2] relates to panel of 140 protein kinases. The conditions noted are these: read-out: IC50 against panel of 140 protein kinases; cited from earlier work.
The subject of a further data set is MCMV. As to the kind of experiment: MCMV replication in MEFs, cell-free virus by TCID50. It is filed as cell-based, murine cytomegalovirus. To be noted: wild-type MEFs; 0.05 PFU/cell; rapamycin 20 nM, Torin1 250 nM.
Data set [3] concerns HCMV. As to the kind of experiment: HCMV multistep growth in serum-starved human fibroblasts, cell-free virus by TCID50. It is filed as cell-based, human cytomegalovirus. To be noted: day 10; 0.05 PFU/cell; rapamycin 20 nM, Torin1 250 nM.

Each structure is given as a SMILES string. pIC50: −log10 of the molar value. Entries after “also recorded” stand apart in the source; their conditions may differ. A value given as a limit tells only on which side of the number the result lay.

Consider `O=C([O-])CCCc1ccccc1.[Na+]` [4-PBA, sodium 4-phenylbutyrate], for which, in the data set on HCMV [1], the “virus yield 8 days after drug removal” value was “recovered and produced a normal yield”. Besides, the “HCMV replication / virus production” value in the data set on HCMV strain AD169 is recorded as “effectively inhibited virus replication in a dose-dependent manner; also recorded: inhibited virus production in a dose-dependent manner”. In addition, in the data set with human fibroblasts, the “cellular viability / toxicity, trypan blue exclusion” value was “no effect on cellular viability; also recorded: not toxic”.

One may read the pIC50 as the negative decadic logarithm of the IC50, by convention in mol/L. On to `COC(=O)Nc1ccc(-c2nc(N3CCOCC3)c3cnn(C4CCN(C(=O)OC)CC4)c3n2)cc1` [WYE354], for which the pIC50 at mTOR was 8.30.

Consider `CNC(=O)Nc1ccc(-c2nc(N3CC4CCC(C3)O4)c3cnn(C4CCC5(CC4)OCCO5)c3n2)cc1` [WYE-125132], for which, in the data set on PI3Ks, the “fold selective versus PI3Ks (PI3K)” value is on record as > 5,000 fold. Further, the pIC50 on mTOR was 9.72.

Consider `O=C(Nc1ccc(-c2nc(N3CC4CCC(C3)O4)c3sccc3n2)cc1)NC1CC1` [Wyeth-BMCL-200910075-9b], for which the “fold selective versus PI3Ks (PI3K)” value in the data set with PI3Ks is > 1,000 fold. In addition, the pIC50 at mTOR is 9.15.

On to `Cc1c(C(=O)N2CCOc3ccc(-c4ccc(N)nc4)cc3C2)ccc(S(C)(=O)=O)c1F` [XL388], for which the pIC50 in data set [2] is < 5.52.

As for `CO[C@H]1C[C@@H]2CC[C@@H](C)[C@@](O)(O2)C(=O)C(=O)N2CCCC[C@H]2C(=O)O[C@H]([C@H](C)C[C@@H]2CC[C@@H](O)[C@H](OC)C2)CC(=O)[C@H](C)/C=C(\C)[C@@H](O)[C@@H](OC)C(=O)[C@H](C)C[C@H](C)/C=C/C=C/C=C/1C` [rapamycin], in the data set on MCMV, the MCMV replication result is recorded as “no inhibitory effect”. Also, the “reduction of HCMV yield” value in the data set on HCMV [3] was ~8 fold.
